Laboratory results published in patent US8598132B2, “Glycosylated indolocarbazoles, method for obtaining same and uses thereof” (Universidad de Oviedo, priority 2008, dated 2013).

Assays:
PDK1 = target: T1, PDK1 (Homo sapiens, UniProt O15530); assay: LabChip (Caliper) kinase assay, PDK1; assay type: biochemical; conditions: read-out: remaining kinase activity (in %) / percentage of inhibition; for inhibition at 0.01 µM: compound at 10 nM; for inhibition at 0.1 µM: compound at 100 nM
T1 sequence (O15530 1-556): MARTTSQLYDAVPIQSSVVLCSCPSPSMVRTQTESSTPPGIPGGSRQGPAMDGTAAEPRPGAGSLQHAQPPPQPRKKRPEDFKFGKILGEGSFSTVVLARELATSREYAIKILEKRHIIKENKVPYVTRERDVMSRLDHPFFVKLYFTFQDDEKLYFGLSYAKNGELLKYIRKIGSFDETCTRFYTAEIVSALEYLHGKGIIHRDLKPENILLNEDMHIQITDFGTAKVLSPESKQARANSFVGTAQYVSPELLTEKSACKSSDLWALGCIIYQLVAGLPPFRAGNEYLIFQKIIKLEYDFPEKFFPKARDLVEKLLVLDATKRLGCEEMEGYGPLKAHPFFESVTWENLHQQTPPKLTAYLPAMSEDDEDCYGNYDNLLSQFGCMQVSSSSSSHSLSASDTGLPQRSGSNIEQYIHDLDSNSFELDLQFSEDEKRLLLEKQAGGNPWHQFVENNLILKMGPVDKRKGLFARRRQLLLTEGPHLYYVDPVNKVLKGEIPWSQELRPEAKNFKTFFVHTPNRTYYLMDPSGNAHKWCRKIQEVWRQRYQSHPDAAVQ
Experimental: (§1) The analysis of kinase activity described here was performed using LabChip (Caliper Life Sciences), specifically the Caliper LC3000 and the EZ Reader II instruments.
(§2) The kinase assay used measures the conversion of a fluorescent peptide (substrate) to a phosphorylated product. The reaction mixture, in a microplate well, is introduced by a capillary in a chip where the non-phosphorylated substrate and the phosphorylated product are separated by […]. The intensity of the fluorescent signal over time is related to the reaction progress. The phosphorylated product migrates quicker than the non-phosphorylated substrate and the signals of the two forms of the peptide appear as differentiated peaks. The Caliper determines the peak height and calculates the ratio of product to the peak sum (P/(P+S)). This value is used to compare wells with compounds and wells with controls and thus determine the % of inhibition for the given product.
The followings kinases were used for the enzymatic inhibition studies, between brackets the value of the Michaelis-Menten constant, Km, of the ATP (Adenosine triphosphate) for each kinase, in μM: obtained from Carna Biosciences: MAPKAPK2 (4.6), AurA (3.6), AurB (5), PKCζ (3.8), RSK1 (23.3), PRAK (5), Erk1 (33.4), PKD2 (32.1), CK1d (16.3), CHK1 (33), ABL (61.7), FYN (36), LYNa (17), CHK2 (57.8), MET (79.5), LCK (28.5), SRC (38), GSK3β (7.3), Erk2 (62.1), PKACα (1.7), AKT2 (186.1), INSR (871.8), p38a (396.5), AKT1(48), MSK1 (21.2), PKCβ2 (84.8), ROCK2 (3.3), PIM2 (4.9), AMPK (38.6), KDR (164.8), IRAK4 (196.5), SGK1 (121.8), SYK (33.5); obtained from Invitrogen: CDK2 (57.6), BTK (123), HGK (80); obtained from Upstate: MST2 (36.6), PKGα (16), PAK2 (1.9), IGF1R (320), FGFR1 (171), MARK1 (33), CAMK2δ (22.4), c-TAK1 (66), DYRK1a (18.1), CaMK4 (3.9), FLT3 (350), c-Raf (6.2), P70S6K (95).
The compounds were dissolved in 100% DMSO and were diluted at 25 times the final concentration desired for the assay. In the case of the determination of Cl50, serial dilutions were made to reach eight concentrations and give rise to the inhibition curve. 1 μL of each concentration is transferred, in duplicate to a 384-well microplate. 12 μL of enzymatic buffer is added to each well containing purified kinase (several suppliers as indicated above), 100 mM HEPES, pH 7.5, 1 mM DTT (Calbiochem), 0.002% Brij-35 (Sigma) and also in presence of 10 mM MgCl2 as cofactor, except for INSR and IRAK4 wherein 10 mM MnCl2 is used instead of MgCl2. For the kinases CAMK26 and CAMK4, 1 mM CaCl2 and 6.7 μg/mL of calmodulin are also added. For KDR kinase, 0.05% of the CHAPSO detergent is added. For the c-Raf kinase, 10 mM MnCl2 is added. For PKCβ2 0.02 μg/mL of PS/PMA is added. For PKGα se 10 μM of cGMP (cyclic guanosine monophosphate) is added. The compound and the enzyme are left for 15 minutes preincubation and, then, the following are added to each well: 12 μL of peptide buffer/ATP containing 100 mM HEPES, pH 7.5, 1.5 μM peptide marker with fluorescein (specific for the corresponding kinase), ATP (at concentration KM), and 0.002% Brij-35 to start the reaction. Generally, the reactions are incubated for 1-1.5 h at ambient temperature to obtain an adequate conversion (15-40%) of the peptide to the phosphorylated product. The reactions were ended by the addition of 45 μL of buffer containing 0 mM EDTA. The microplates were read by the LabChip 3000 using a 12-channel LabChip. The P/(P+S) values were obtained as described above and the CI50 curves were generated using XIfit.
For example, the activity of the Dyrk1a kinase is inhibited in 87% by the compound of formula (III) and completely by the compound of formula (XII) when used at a concentration of 10 nM.

AurB = target: T2, AurB (Homo sapiens, UniProt Q96GD4); assay: LabChip (Caliper) kinase assay, AurB; assay type: biochemical; conditions: ATP at Km, read-out: CI50 (the source's name)
T2 construct: purchased Carna Biosciences
T2 sequence (Q96GD4 whole entry): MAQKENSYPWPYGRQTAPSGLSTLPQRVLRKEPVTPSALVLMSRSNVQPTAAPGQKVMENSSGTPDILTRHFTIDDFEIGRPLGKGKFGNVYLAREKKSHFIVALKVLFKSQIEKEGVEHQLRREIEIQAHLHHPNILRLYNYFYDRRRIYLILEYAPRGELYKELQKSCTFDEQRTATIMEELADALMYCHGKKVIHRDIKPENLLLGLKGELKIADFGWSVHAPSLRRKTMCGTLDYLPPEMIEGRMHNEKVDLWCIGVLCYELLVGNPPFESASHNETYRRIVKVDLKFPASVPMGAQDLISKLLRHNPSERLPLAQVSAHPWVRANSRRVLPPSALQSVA
T2 sequence (Q9NQS7 803-918 partner limits assumed): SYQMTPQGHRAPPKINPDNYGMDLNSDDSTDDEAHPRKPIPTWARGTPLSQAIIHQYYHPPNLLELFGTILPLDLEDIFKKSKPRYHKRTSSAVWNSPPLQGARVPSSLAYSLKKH
Experimental: as §1
as §2, with “given product. […]” for “given product.”
The compounds were dissolved in 100% DMSO and were diluted at 25 times the final concentration desired for the assay. […] The microplates were read by the LabChip 3000 using a 12-channel LabChip. […]

SMILES | inhibition at 0.01 µM (PDK1) [%] | inhibition at 0.1 µM (PDK1) [%] | IC50 (AurB) [nM]
C[C@@H]1O[C@@H](n2c3ccccc3c3c4c(c5c6ccccc6[nH]c5c32)C(=O)NC4=O)[C@H](O)[C@H](O)[C@H]1O [formula (III), N^13-1′-β-L-rhamnosylarcyriaflavin] | -6 | 46 | –
C[C@@H]1O[C@@H](n2c3ccccc3c3c4c(c5c6ccccc6[nH]c5c32)C(=O)NC4=O)C[C@H](O)[C@H]1O [formula (IV), N^13-1′-β-L-olivosylarcyriaflavin] | 7 | 71 | –
C[C@]12O[C@H](C[C@@H](O)[C@H]1O)n1c3ccccc3c3c4c(c5c6ccccc6n2c5c31)C(=O)NC4=O [formula (IX), N^12-5′(S)-N^13-1′-(R)-L-digitoxosylarcyriaflavin] | – | – | 4.5
C[C@@H]1O[C@@H](n2c3ccccc3c3c4c(c5c6ccccc6[nH]c5c32)C(=O)NC4=O)C[C@@H](O)[C@H]1O [formula (V), N^13-1′-β-L-digitoxosylarcyriaflavin] | 61 | 97 | –
C[C@H]1O[C@@H](n2c3ccccc3c3c4c(c5c6ccccc6[nH]c5c32)C(=O)NC4=O)C[C@@H](O)[C@@H]1O [formula (VI), N^13-1′-β-D-olivosylarcyriaflavin] | 21 | 76 | –
C[C@@H]1O[C@@H](n2c3ccccc3c3c4c(c5c6ccccc6[nH]c5c32)CNC4=O)[C@H](O)[C@H](O)[C@H]1O [formula (XII), N^13-1′-β-L-rhamnosyl-k252c] | -10 | 15 | –
C[C@@H]1O[C@@H](n2c3ccccc3c3c4c(c5c6ccccc6[nH]c5c32)CNC4=O)C[C@H](O)[C@H]1O [formula (XIII), N^13-1′-β-L-olivosyl-k252c] | 9 | 81 | –
C[C@@H]1O[C@@H](n2c3ccccc3c3c4c(c5c6ccccc6[nH]c5c32)CNC4=O)C[C@@H](O)[C@H]1O [formula (XIV), N^13-1′-β-L-digitoxosyl-k252c] | 30 | 94 | –
C[C@H]1O[C@@H](n2c3ccccc3c3c4c(c5c6ccccc6[nH]c5c32)CNC4=O)C[C@@H](O)[C@@H]1O [formula (XV), N^13-1′-β-D-olivosyl-k252c] | 3 | 81 | –
C[C@]12O[C@H](C[C@H](O)[C@H]1O)n1c3ccccc3c3c4c(c5c6ccccc6n2c5c31)CNC4=O [formula (XVII), N^12-5′(S)-N^13-1′-(R)-L-olivosyl-k252c] | – | – | 6.8
